Paper PMC11238290, “Anti-Staphy Peptides Rationally Designed from Cry10Aa Bacterial Protein” (ACS Omega, 2024)
Where a SMILES comes first, the peptide text is derived from it.

How the values were obtained:
[1] = Peptide stability in human serum by RP-HPLC; format: in vitro ADME; conditions: human serum (male AB plasma, Sigma-Aldrich), serum:peptide 5:1 v/v, peptide 256 μM, 37 °C, RP-HPLC Venusil ASB C18, PDA 216 nm; for relative peak area (%), peptide remaining in human serum, 6 h: 360 min; for peptide remaining in human serum, 24 h: triplicate
Procedure: (§1) The stability of peptides AMPCry10Aa, AMPCry10Aa_1, and AMPCry10Aa_5, against serum proteases was evaluated as previously described.[86],[87] Aliquots of filtered human serum from male AB plasma from Sigma-Aldrich were mixed with each peptide to a final concentration of 256 μM in a 5:1 v/v ratio. Each aliquot was then incubated at 37 °C, and 200 μL was collected for analysis of peptide degradation at 0, 2, 4, 6, 12, and 24 h. The samples were analyzed by reversed-phase high-performance liquid chromatography (RP-HPLC) with a Shimadzu LC system (Kyoto, Japan) using LC Solution software. A gradient method and a Venusil ASB C18 column (250 mm × 4.6 mm, 5 μm, Bonna-Agela Technologies) with an injection volume of 15 μL were used. A segmented gradient was applied with a constant flow rate of 1.0 mL min^–1 and PDA detection at 216 nm using water and acetonitrile eluents as the mobile phase. The peptide amount was quantified by subtracting the relative area of each analyzed time peak from the initial control peak area. All assays were performed in triplicate.

serum proteases = assay: Peptide stability in human serum by RP-HPLC; format: in vitro ADME; conditions: human serum (male AB plasma, Sigma-Aldrich), serum:peptide 5:1 v/v, peptide 256 μM, 37 °C, RP-HPLC Venusil ASB C18, PDA 216 nm, mean ± SD of three replicates; for remaining at 2 h, 256 μM: read-out: relative peak area (%), peptide remaining in human serum, 2 h; for remaining at 4 h, 256 μM: read-out: relative peak area (%), peptide remaining in human serum, 4 h; for remaining at 6 h, 256 μM: read-out: relative peak area (%), peptide remaining in human serum, 6 h; for remaining at 12 h, 256 μM: read-out: relative peak area (%), peptide remaining in human serum, 12 h
Procedure: as §1

[2] = Solubility observed in the aqueous EPR treatment solution; format: physicochemical; conditions: 100 μg of peptide in 50 μL of PBS (EPR treatment); observation
From the text: The EPR spectra (Figure 8A) indicate that the spin probe was structured in very rigid membranes, presenting 2A∥ values of ∼62 to ∼63 G, much higher than those found for the Leishmania parasite (∼54 G).[73]−[76] […] Pronounced increases in lipid fluidity generally create disorder in the lipid chains packaging, especially at lipid–protein interfaces, where they increase the likelihood of pore formation that could lead to electrolyte leakage and permeation of small molecules.[77]
Peptides' immediate effects on bacteria’s outermost membrane fluidity were analyzed by EPR spectroscopy. The bacteria in culture (1 × 10^9 CFU) were centrifuged and resuspended in 50 μL of PBS containing 100 μg of peptide. After 20 min of incubation, the sample was spin-labeled for the EPR experiment. To incorporate the spin label into the bacterial membranes, a 5 mg·mL^–1 ethanolic solution containing the spin label 5-doxyl stearic acid (5-DSA, Sigma-Aldrich, St. Louis, MO, USA) was added to each sample. Immediately after spin labeling, the sample was transferred to a 1 mm i.d. capillary tube, which was flame-sealed on one side. The capillary was centrifuged at 25,000 × g for 5 min, and the cell pellet of approximately 2 mm was placed in the center of the resonance cavity. […]

Row | Structure (SMILES) | relative peak area (%), peptide remaining in human serum, 0 h ([1]; mean ± SD of three replicates) [%] | relative peak area (%), peptide remaining in human serum, 6 h ([1]; mean ± SD of three replicates) [%] | relative peak area (%), peptide remaining in human serum, 12 h ([1]; mean ± SD of three replicates) | peptide remaining in human serum, 24 h [1] | remaining at 2 h, 256 μM (serum proteases) [%] | remaining at 4 h, 256 μM (serum proteases) [%] | remaining at 6 h, 256 μM (serum proteases) [%] | remaining at 12 h, 256 μM (serum proteases) [%] | relative peak area (%), peptide remaining in human serum, 2 h ([1]; 2 h, mean ± SD of three replicates) | solubility in the aqueous treatment solution [2]
1 | CC[C@H](C)[C@H](N)C(=O)N[C@H](C(=O)N[C@@H](CC(N)=O)C(=O)N[C@H](C(=O)N[C@@H](CCCCN)C(=O)N[C@H](C(=O)N[C@@H](CO)C(=O)N[C@@H](CC(C)C)C(=O)N[C@@H](CCCCN)C(=O)N[C@H](C(=O)N[C@H](C(=O)N[C@H](C(=O)N[C@@H](CCCCN)C(=O)N[C@@H](CC(N)=O)C(=O)N[C@@H](C)C(=O)N[C@@H](CC(C)C)C(=O)N[C@@H](CC(=O)O)C(=O)N[C@@H](CCCCN)C(=O)N[C@H](C(=O)N[C@@H](CCC(N)=O)C(N)=O)[C@@H](C)CC)[C@@H](C)CC)[C@@H](C)CC)[C@@H](C)O)[C@@H](C)O)C(C)C)[C@@H](C)CC [AMPCry10Aa_5] (H-IINVKTSLKTIIKNALDKIQ-NH2) | 92.83 ± 3.33 | 36.73 ± 1.84 | trace | no longer detectable | 81.6 ± 2.21 | 68.8 ± 0.99 | 40 | 8.11 ± 3.65 |  | 
2 | CC[C@H](C)[C@H](N)C(=O)N[C@H](C(=O)N[C@@H](CC(N)=O)C(=O)N[C@H](C(=O)N[C@@H](CC(C)C)C(=O)N[C@H](C(=O)N[C@@H](CO)C(=O)N[C@H](C(=O)N[C@H](C(=O)N[C@H](C(=O)N1CCC[C@H]1C(=O)N[C@H](C(=O)N[C@@H](CCCCN)C(=O)N[C@@H](CC(N)=O)C(=O)N[C@@H](CCC(N)=O)C(=O)N[C@@H](CC(C)C)C(=O)N[C@@H](CC(=O)O)C(=O)N[C@@H](CCCCN)C(=O)N[C@@H](Cc1ccc(O)cc1)C(=O)N[C@@H](CCC(N)=O)C(N)=O)[C@@H](C)CC)[C@@H](C)O)C(C)C)[C@@H](C)CC)[C@@H](C)O)C(C)C)[C@@H](C)CC [AMPCry10Aa] (H-IINVLTSIVTPIKNQLDKYQ-NH2) | 92.2 ± 3.23 |  | no longer detectable |  | 39.6 ± 2.44 | 18.6 ± 2.76 | ~0 |  | about 40% | did not dissolve
3 | CC[C@H](C)[C@H](NC(=O)[C@H](C)NC(=O)[C@@H](NC(=O)[C@@H](NC(=O)[C@@H](NC(=O)[C@@H](NC(=O)[C@@H](NC(=O)[C@H](CCCCN)NC(=O)[C@H](CC(C)C)NC(=O)[C@H](CC(N)=O)NC(=O)[C@H](CC(=O)O)NC(=O)[C@@H](N)CCCCN)[C@@H](C)O)[C@@H](C)CC)[C@@H](C)CC)C(C)C)[C@@H](C)O)C(=O)N[C@@H](CCCCN)C(=O)N[C@@H](CC(N)=O)C(=O)N[C@H](C(=O)N[C@@H](CC(C)C)C(=O)N[C@@H](CC(=O)O)C(=O)N[C@@H](CCCCN)C(=O)N[C@@H](Cc1ccc(O)cc1)C(=O)N[C@@H](CCC(N)=O)C(N)=O)[C@@H](C)CC [AMPCry10Aa_1] (H-KDNLKTIIVTAIKNILDKYQ-NH2) | 96.93 ± 0.51 | 58.96 ± 2.33 | trace | no longer detectable | 81.8 ± 1.54 | 74.7 ± 1.98 | 60 | 4.37 ± 1.32 |  | 
